The text below walks through data of ChEMBL document CHEMBL4011652, “Discovery of Novel Potent Reversible and Irreversible Myeloperoxidase Inhibitors Using Virtual Screening Procedure” (J Med Chem, 2017).

The target in one series is Lactoperoxidase (Bos taurus, UniProt P80025). As to the kind of experiment: Inhibition of bovine milk LPO assessed as reduction in NaOSCN production in presence of H2O2/NaSCN after 5 mins.
In series [1] the target is T1, Myeloperoxidase (Homo sapiens, UniProt P05164).
T1 sequence (P05164 whole entry): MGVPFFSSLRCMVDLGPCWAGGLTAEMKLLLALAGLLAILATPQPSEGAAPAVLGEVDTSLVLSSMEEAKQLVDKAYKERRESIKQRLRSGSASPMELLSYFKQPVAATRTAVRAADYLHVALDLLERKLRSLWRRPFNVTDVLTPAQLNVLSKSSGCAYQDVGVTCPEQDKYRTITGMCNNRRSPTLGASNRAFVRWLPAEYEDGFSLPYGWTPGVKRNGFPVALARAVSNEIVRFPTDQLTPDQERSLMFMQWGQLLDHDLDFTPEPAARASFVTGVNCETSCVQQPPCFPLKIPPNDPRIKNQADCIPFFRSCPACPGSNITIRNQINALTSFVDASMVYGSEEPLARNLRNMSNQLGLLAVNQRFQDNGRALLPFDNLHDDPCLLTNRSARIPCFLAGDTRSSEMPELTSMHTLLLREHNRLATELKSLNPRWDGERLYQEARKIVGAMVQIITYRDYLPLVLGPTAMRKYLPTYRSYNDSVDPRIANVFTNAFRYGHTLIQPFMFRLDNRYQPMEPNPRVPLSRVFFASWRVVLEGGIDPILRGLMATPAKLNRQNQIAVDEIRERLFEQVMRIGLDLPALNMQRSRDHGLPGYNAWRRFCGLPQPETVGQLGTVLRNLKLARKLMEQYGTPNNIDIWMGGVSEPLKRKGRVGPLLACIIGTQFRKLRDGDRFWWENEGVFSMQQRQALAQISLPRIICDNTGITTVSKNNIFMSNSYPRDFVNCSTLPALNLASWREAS
As to the kind of experiment: Inhibition of recombinant MPO (unknown origin) assessed as reduction in taurine chloramine production preincubated with enzyme and taurine followed by H2O2 addition measured after 5 mins.

A further series has as its system Plasma. As to the kind of experiment: Plasma concentration in po dosed human. In kind it is ADME, organism-based. Particulars: in vivo.
Another series has as its system NHDF. Briefly: Cytotoxicity against NHDF assessed as reduction in cell viability after 72 hrs by MTT assay. In kind it is cell-based. Particulars: Homo sapiens. On the technique in general: Formazan colour is commonly taken as a measure of viable cells.
For series [2], the target named is T1, Myeloperoxidase. Briefly: Inhibition of recombinant MPO (unknown origin) assessed as reduction in LDL oxidation in presence of H2O2 and HCl after 5 mins by ELISA. (In an ELISA, binding on a coated surface is turned into a signal by an enzyme label.)
The target of series [3] is T1, Myeloperoxidase. As to the kind of experiment: Inhibition of MPO in human neutrophils assessed as reduction in HOCl production preincubated for 30 mins followed by H2O2 addition by APF staining based flow cytometry.
In series [4] the test system is Neutrophil. Briefly: Induction of apoptosis in human neutrophils assessed as increase in necrotic cells at >= 50 uM after 30 mins by JC1 staining based flow cytometry. It is filed as cell-based. Particulars: 0.5 h. In general terms: In flow cytometry, cells or beads pass a laser one at a time.
In series [5] the test system is Neutrophil. Briefly: Induction of apoptosis in human neutrophils up to 1 mM after 30 mins by JC1 staining based flow cytometry. It is filed as cell-based. Particulars: 0.5 h.
Series [6] in a line: Selectivity ratio of IC50 for bovine milk LPO to IC50 for recombinant MPO (unknown origin).
Series [7] deals with T2, Myeloperoxidase (Homo sapiens) (UniProt P05164).
T2 sequence (whole entry): T1 sequence (P05164 whole entry)
As to the kind of experiment: Inhibition of MPO (unknown origin) assessed as apparent bi-molecular rate constant for PorFe(4)=O radical reduction by stopped-flow spectroscopic analysis.

In series [8] the target is T2, Myeloperoxidase (Homo sapiens). Briefly: Inhibition of recombinant MPO (unknown origin) assessed as reduction in TMB peroxidation by measuring residual activity at 5 uM in absence of H2O2 incubated for 5 mins followed by 100 fold enzyme dilution relative to control.
Series [9] has the same target. The following applies: 5 uM.
Description: Irreversible inhibition of recombinant MPO (unknown origin) assessed as reduction in guaiacol peroxidation by measuring enzyme activity recovery at 5 uM incubated for 20 mins followed by 200 fold dilution measured for 10 mins
Series [10] shares this target. As to the kind of experiment: Inhibition of recombinant MPO (unknown origin) assessed as reduction in TMB peroxidation by measuring residual activity at 5 uM in presence of H2O2 and NaCl incubated for 5 mins followed by 100 fold enzyme dilution relative to control.
For series [11], the system named is Neutrophil. As to the kind of experiment: Induction of apoptosis in human neutrophils assessed as compound concentration required for effect after 30 mins by JC1 staining based flow cytometry. The following applies: 0.5 h. In kind it is cell-based.
Series [12] has as its target T2, Myeloperoxidase (Homo sapiens). The following applies: 1 to 5 uM.
Description: Inhibition of MPO in human neutrophils assessed as reduction in HOCl production at 1 to 5 uM preincubated for 30 mins followed by H2O2 addition by APF staining based flow cytometry relative to control
Series [13] shares this target. Briefly: Inhibition of recombinant MPO (unknown origin) assessed as reduction in TMB peroxidation by measuring residual activity at 5 uM in presence of H2O2 incubated for 5 mins followed by 100 fold enzyme dilution relative to control.
Series [14] has the same target. As to the kind of experiment: Inhibition of recombinant MPO (unknown origin) assessed as reduction in taurine chloramine production at 5 uM preincubated with enzyme and taurine followed by H2O2 addition measured after 5 mins relative to control.
Series [15] has the same target. As to the kind of experiment: Inhibition of MPO (unknown origin) assessed as apparent bi-molecular rate constant for PorFe(4)-OH reduction by stopped-flow spectroscopic analysis.

pIC50: −log10 of the molar value. Calls of active or inactive are those of the source. The rule behind the calls is not given here.

In general, pIC50 refers to the IC50 on a negative log10 scale, so that one unit is a factor of ten. `CCN(CC)CCNC(=O)c1cc(Cl)c(N)cc1OC` [METOCLOPRAMIDE]: the pIC50 is less than 5.30 at Lactoperoxidase, 6.00 to 6.46 on Myeloperoxidase [1], less than 4.30 in the series on NHDF and less than 5.30 on Myeloperoxidase [2]. The compound also came in with a concentration in the series with Plasma of 200 to 400 nM.
By inhibition is commonly meant the drop in the measured response relative to a control, in per cent. On to `COc1ccc2c(C)nc(NC(=N)N)nc2c1`, for which the pIC50 at Myeloperoxidase [3] is 4.03; on Lactoperoxidase, 5.49; at Myeloperoxidase [1], 7.36; in the series on NHDF, 4.77; at Myeloperoxidase [2], 7.05. The Activity entry in the series with Neutrophil [4] is “Toxic”; in the series with Neutrophil [5], “Non-Toxic”; in [8], 84%; in [10], 5%; in the series on Neutrophil [11] it was more than 50 µM; in [13], 4%. Moreover, the Ratio IC50 in series [6] turned out to be 73. The Kapp in series [7] is 1.9 ×10⁶ /M/s. The inhibition entry in [9] was “Active”. In series [12], the inhibition was 67 to 71%.
For `O=C(N/N=C/c1ccc([N+](=O)[O-])o1)c1ccc(O)cc1` [NIFUROXAZIDE], the pIC50 at Myeloperoxidase [1] is less than 5.30.
Turning to `C[C@H](COc1ccccc1)N[C@@H](C)[C@@H](O)c1ccc(O)cc1`, the inhibition in series [14] was 5.32%.
With `CC(C)NCC(=O)c1nc2cc(F)ccc2[nH]1`, the pIC50 was less than 5.30 at Lactoperoxidase, 6.89 at Myeloperoxidase [1] and less than 4.30 in the series on NHDF. The Activity in series [8] came to 79%; in [10], 81%; in series [13], 87%.
With `Fc1ccc([C@@H]2CCNC[C@H]2COc2ccc3c(c2)OCO3)cc1` [PAROXETINE], the pIC50 at Myeloperoxidase [1] is 7.70.
For the compound `C[C@H]1CN(c2cc3c(cc2F)c(=O)c(C(=O)O)cn3C2CC2)CCN1`, the pIC50 at Myeloperoxidase [1] was less than 5.30.
As for `CSc1ccc2c(c1)N(CC[C@H]1CCCCN1C)c1ccccc1S2`, the pIC50 at Myeloperoxidase [1] is less than 5.30. Besides, the Kapp in series [7] worked out at 5.2 ×10⁶ /M/s; in series [15], 1.7 ×10⁴ /M/s. Further, the inhibition in series [14] stood at 24.2%.
As to `Cc1cccc(Nc2ccccc2C(=O)O)c1C` [MEFENAMIC ACID], the pIC50 at Myeloperoxidase [1] is 6.01; at Myeloperoxidase [2], 5.66. Further, the values for the Activity in [8], in [10] and in series [13] were 87%, 87% and 82%, respectively.
On to `N#CC1=C(N)Oc2cc(O)ccc2C1c1cccc(C(F)(F)F)c1` (stereo not drawn), for which, at Myeloperoxidase [1], the pIC50 is 5.00.
Take `O=c1cc(-c2ccc(O)cc2)oc2cc(O)cc(O)c12` [APIGENIN]: in series [6], the Ratio IC50 is 5.6. Besides, the negative-log IC50 (pIC50) on Lactoperoxidase was 4.75; on Myeloperoxidase [1], 5.42.
On to `Cc1nc(N=C(N)N)nc2cc(Cl)ccc12`, for which the negative-log IC50 (pIC50) on Myeloperoxidase [1] is 7.02.
For `CCn1cc(C(=O)O)c(=O)c2cc(F)c(N3CCN[C@@H](C)C3)c(F)c21`, at Myeloperoxidase [1], the pIC50 was less than 5.30. Also, the figures for the Kapp in series [7] and in series [15] were 3.1 ×10⁴ /M/s and 1.2 ×10³ /M/s, respectively. Further, the inhibition entry in series [14] was “inactive”.
Take `Cc1nc(NC(=N)N)nc2ccc(Cl)cc12`: on Myeloperoxidase [1], the negative logarithm of the IC50 (pIC50) was 6.20.
Regarding `NCCCCc1c[nH]c2ccc(F)cc12`, the pIC50 on Myeloperoxidase [1] was 8.10.
On to `COc1cc(N[C@H](C)CCCN)c2ncccc2c1`, for which the Ratio IC50 in [6] came to 3. Further, the pIC50 on Lactoperoxidase is 6.10; at Myeloperoxidase [1], 6.52; in the series with NHDF it was less than 4.30. Also, the figures for the Activity in series [8], in [10] and in series [13] were 86%, 86% and 91%, respectively.
As for `c1c2c(cc3c4n(nc13)CCS4)OCO2`, the negative-log IC50 (pIC50) on Myeloperoxidase [1] was 7.07.
For the compound `Fc1ccc2oc([C@H]3CCNC3)nc2c1`, the negative logarithm of the IC50 (pIC50) was 5.76 at Myeloperoxidase [1] and less than 4.30 with NHDF.
Regarding `Cc1ccc(-c2cc(C(F)(F)F)nn2-c2ccc(S(N)(=O)=O)cc2)cc1`, the inhibition in series [14] worked out at 11%.
On the same count and under the same terms, next, `CN(C)CCCN1c2ccccc2Sc2ccc(C(F)(F)F)cc21`: 12.3%.
Take `Cc1nc(N=C(N)N)nc2cc(F)ccc12`: in series [6], the Ratio IC50 turned out to be 30. Besides, the pIC50 at Lactoperoxidase is 5.41; on Myeloperoxidase [1] it was 7.40.
As to `NNc1nncc2ccccc12` [HYDRALAZINE], the Ratio IC50 in series [6] was determined as 1.3. The values for the pIC50 on Lactoperoxidase, with NHDF and at Myeloperoxidase [2] were 5.92, less than 4.30 and 5.63, respectively. Also, the Kapp in [7] amounted to 7.1 ×10⁶ /M/s. For the same compound, the Activity stood at 76% in series [8], 6% in series [10] and 9% in series [13].
As to `CCN1CCC[C@H]1CNC(=O)c1cc(S(N)(=O)=O)ccc1OC` [LEVOSULPIRIDE], the pIC50 at Myeloperoxidase [1] was 5.11.
For `O=c1c(O)c(-c2ccc(O)cc2)oc2cc(O)cc(O)c12` [KAEMPFEROL], the negative logarithm of the IC50 (pIC50) at Myeloperoxidase [1] is 5.65. The Activity worked out at 78% in series [8], 84% in series [10] and 81% in series [13].
As for `Cc1nc(NC(=N)N)nc2cc(Br)ccc12`, the pIC50 on Myeloperoxidase [1] is 6.97.
In the case of `O=c1c(O)c(-c2ccc(O)c(O)c2)oc2cc(O)cc(O)c12` [QUERCETIN], the Ratio IC50 in series [6] worked out at 5. Further, the pIC50 at Lactoperoxidase is 5.21; on Myeloperoxidase [1], 5.94; in the series on NHDF, less than 4.30; at Myeloperoxidase [2], 5.51. The Activity is 72% in [8], 79% in series [10] and 78% in [13].
On to `Cc1nc(NC(=N)N)nc2ccccc12`, for which the pIC50 at Myeloperoxidase [1] is 6.05.
`Fc1ccc2[nH]c([C@@H]3CCN(CC4NC=CN4)C3)nc2c1`: the pIC50 at Myeloperoxidase [3] was 3.50; on Lactoperoxidase, less than 5.30; on Myeloperoxidase [1], 7.30; in the series on NHDF, less than 4.30; at Myeloperoxidase [2], 6.92. The Activity entry in the series with Neutrophil [5] is “Non-Toxic”; in series [8] it was 83%; in series [10], 84%; in the series on Neutrophil [11], more than 50 µM; in series [13], 84%.
Turning to `Cc1nc(N=C(N)N)nc2ccc(Br)cc12`, the pIC50 on Myeloperoxidase [1] was 6.12.
`O=c1cc(-c2ccc(O)cc2)oc2cc(O)ccc12`: the pIC50 on Myeloperoxidase [1] was 5.24.
With `O[C@@H]1CN[C@H](c2nc(Cc3ccc(F)cc3Cl)no2)C1`, on Myeloperoxidase [1], the pIC50 was 5.33.
Consider `Cc1nc(N=C(N)N)nc2ccc(F)cc12`, for which the pIC50 at Myeloperoxidase [1] is 6.84.
On to `Nc1cc(=O)[nH]c(CSc2ccc(F)c3ccccc23)n1`, for which the inhibition in [14] was found to be 37.2%.
